Tests used:
[1] = system: lambsquarters; assay: Test C preemergence; format: in vivo, Chenopodium album; details: for pest or weed control at 16 g/ha: 16 g ai/ha, scale 0 to 100 (0 no effect, 100 complete control); for pest or weed control at 16 g/ha / pest or weed control at 62 g/ha / pest or weed control at 125 g/ha / Lambsquarters plant response rating: preemergence; for pest or weed control at 16 g/ha / pest or weed control at 62 g/ha / pest or weed control at 125 g/ha: read-out: Lambsquarters plant response rating; for pest or weed control at 62 g/ha / pest or weed control at 125 g/ha / Lambsquarters plant response rating: scale 0 (no effect) to 100 (complete control)
In short: (§1)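 Whole-plant greenhouse test with surfactant-containing solvent formulation, applied preemergence to sown loam–sand pots or postemergence to 2–18 cm plants. Scored by eye 13 to 15 days on, 0–100 scale.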

[2] = system: rice; assay: Test B flooded paddy test; format: in vivo, Oryza sativa; details: Flood, 250 g ai/ha, 0 to 100 scale where 0 is no effect and 100 is complete control; for plant injury at 250 g/ha: Oryza sativa, read-out: Plant response rating, Rice
In short: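 Flooded to 3 cm at the 2-leaf stage, pots received compound through the paddy water and were kept at that depth under greenhouse conditions. After 13–15 days, effect was rated by eye relative to controls, 0 = none and 100 = complete control.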

[3] = system: large (Lg) crabgrass; assay: Test C preemergence; format: in vivo, Digitaria sanguinalis; details: for pest or weed control at 16 g/ha / pest or weed control at 62 g/ha / pest or weed control at 125 g/ha / pest or weed control at 31 g/ha: Digitaria sanguinalis, pre-emergence; for pest or weed control at 16 g/ha / pest or weed control at 62 g/ha / pest or weed control at 125 g/ha / Crabgrass, Large plant response rating: preemergence; for pest or weed control at 16 g/ha / pest or weed control at 62 g/ha / pest or weed control at 125 g/ha: read-out: Crabgrass, Large plant response rating; for pest or weed control at 31 g/ha: read-out: Plant response rating, Crabgrass, Large
In short: as §1

[4] = system: wild oat; assay: Test C postemergence; format: in vivo, Avena fatua; details: for pest or weed control at 16 g/ha / pest or weed control at 125 g/ha / pest or weed control at 62 g/ha: Avena fatua, post-emergence; for pest or weed control at 16 g/ha: read-out: Plant response rating (0 to 100), Oat, Wild; for pest or weed control at 125 g/ha / pest or weed control at 62 g/ha / Plant response rating, Oat, Wild: scale 0 to 100 (0 no effect, 100 complete control); for pest or weed control at 125 g/ha / pest or weed control at 62 g/ha: read-out: Plant response rating, Oat, Wild
In short: as §1

[5] = system: wheat, winter; assay: Test C postemergence; format: in vivo, Triticum aestivum; details: for plant injury at 16 g/ha / plant injury at 125 g/ha / plant injury at 62 g/ha: Triticum aestivum, post-emergence; for plant injury at 16 g/ha: read-out: Plant response rating (0 to 100), Wheat; for plant injury at 125 g/ha / plant injury at 62 g/ha / Plant response rating, Wheat: scale 0 to 100 (0 no effect, 100 complete control); for plant injury at 125 g/ha / plant injury at 62 g/ha: read-out: Plant response rating, Wheat
In short: as §1

[6] = system: ragweed; assay: Test C postemergence; format: in vivo, Ambrosia elatior; details: for pest or weed control at 16 g/ha / pest or weed control at 125 g/ha / pest or weed control at 62 g/ha: Ambrosia artemisiifolia, post-emergence; for pest or weed control at 16 g/ha: read-out: Plant response rating (0 to 100), Ragweed; for pest or weed control at 125 g/ha / pest or weed control at 62 g/ha / Plant response rating, Ragweed: scale 0 to 100 (0 no effect, 100 complete control); for pest or weed control at 125 g/ha / pest or weed control at 62 g/ha: read-out: Plant response rating, Ragweed
In short: as §1

[7] = system: kochia; assay: Test C postemergence; format: in vivo, Kochia scoparia; details: for pest or weed control at 16 g/ha / pest or weed control at 125 g/ha / pest or weed control at 62 g/ha: Bassia scoparia, post-emergence; for pest or weed control at 16 g/ha: read-out: Plant response rating (0 to 100), Kochia; for pest or weed control at 125 g/ha / pest or weed control at 62 g/ha / Plant response rating, Kochia: scale 0 to 100 (0 no effect, 100 complete control); for pest or weed control at 125 g/ha / pest or weed control at 62 g/ha: read-out: Plant response rating, Kochia
In short: as §1

[8] = system: johnsongrass; assay: Test C preemergence; format: in vivo, Sorghum halepense; details: for pest or weed control at 16 g/ha / pest or weed control at 62 g/ha / pest or weed control at 125 g/ha / Johnsongrass plant response rating: preemergence; for pest or weed control at 16 g/ha / pest or weed control at 62 g/ha / pest or weed control at 125 g/ha: read-out: Johnsongrass plant response rating
In short: as §1

[9] = Chenopodium album, pre-emergence
[10] = Chenopodium album, pre-emergence, 62 g ai/ha
[11] = Chenopodium album, pre-emergence, 125 g ai/ha
[12] = 16 g ai/ha, scale 0 to 100 (0 no effect, 100 complete control)
[13] = 62 g ai/ha, scale 0 (no effect) to 100 (complete control)
[14] = 125 g ai/ha, scale 0 (no effect) to 100 (complete control)
[15] = Preemergence, 31 g ai/ha, scale 0 to 100, 0 no effect, 100 complete control
[16] = 16 g ai/ha, postemergence, 0 is no effect, 100 is complete control
[17] = 125 g ai/ha, postemergence, visual rating
[18] = Sorghum halepense, pre-emergence, 16 g ai/ha, scale 0 to 100 (0 no effect, 100 complete control)
[19] = Sorghum halepense, pre-emergence, 62 g ai/ha, scale 0 (no effect) to 100 (complete control)
[20] = Sorghum halepense, pre-emergence, 125 g ai/ha, scale 0 (no effect) to 100 (complete control)

FC(F)(F)Sc1cnn(-c2ccccc2Oc2ncc(Cl)cn2)c1 [Compound 132, 5-chloro-2-[2-[4-(trifluoromethylthio)-1H-pyrazol-1-yl]phenoxy]pyrimidine]
pest or weed control at 16 g/ha [1, 9]: 75% | pest or weed control at 62 g/ha [1, 10]: 100% | pest or weed control at 125 g/ha [1, 11]: 100% | pest or weed control at 31 g/ha ([1]; Chenopodium album, pre-emergence, Preemergence, 31 g ai/ha, scale 0 to 100, 0 no effect, 100 complete control, read-out: Plant response rating, Lambsquarters): 55% | plant injury at 250 g/ha [2]: 0% | pest or weed control at 16 g/ha [3, 12]: 65% | pest or weed control at 62 g/ha [3, 13]: 98% | pest or weed control at 125 g/ha [3, 14]: 100% | pest or weed control at 31 g/ha [3, 15]: 85% | pest or weed control at 16 g/ha [4, 16]: 0% | pest or weed control at 125 g/ha [4, 17]: 5% | pest or weed control at 62 g/ha ([4]; Postemergence, 62 g ai/ha): 5% | plant injury at 16 g/ha [5, 16]: 0% | plant injury at 125 g/ha [5, 17]: 5% | plant injury at 62 g/ha ([5]; Postemergence, 62 g ai/ha): 0% | pest or weed control at 16 g/ha [6, 16]: 0% | pest or weed control at 125 g/ha [6, 17]: 35% | pest or weed control at 62 g/ha ([6]; Postemergence, 62 g ai/ha): 10% | pest or weed control at 16 g/ha [7, 16]: 10% | pest or weed control at 125 g/ha [7, 17]: 95% | pest or weed control at 62 g/ha ([7]; Postemergence, 62 g ai/ha): 85% | pest or weed control at 16 g/ha [8, 18]: 0% | pest or weed control at 62 g/ha [8, 19]: 0% | pest or weed control at 125 g/ha [8, 20]: 35% | pest or weed control at 31 g/ha ([8]; Sorghum halepense, pre-emergence, Preemergence, 31 g ai/ha, scale 0 to 100, 0 no effect, 100 complete control, read-out: Plant response rating, Johnsongrass): 0%

Cc1cnc(Oc2cccc(C#N)c2-n2cc(I)cn2)nc1 [Compound 136]
Lambsquarters plant response rating ([1]; 62 g ai/ha): 80 | Lambsquarters plant response rating ([1]; 125 g ai/ha): 100 | Plant response rating, Rice [2]: 15 | Crabgrass, Large plant response rating [3, 12]: 35 | Crabgrass, Large plant response rating [3, 13]: 100 | Crabgrass, Large plant response rating [3, 14]: 100 | Plant response rating, Crabgrass, Large [3, 15]: 100 | Plant response rating (0 to 100), Oat, Wild [4, 16]: 0 | Plant response rating, Oat, Wild [4, 17]: 5 | Plant response rating, Oat, Wild ([4]; Postemergence, 62 g ai/ha): 5 | Plant response rating (0 to 100), Wheat [5, 16]: 0 | Plant response rating, Wheat [5, 17]: 5 | Plant response rating, Wheat ([5]; Postemergence, 62 g ai/ha): 5 | Plant response rating (0 to 100), Ragweed [6, 16]: 25 | Plant response rating, Ragweed [6, 17]: 45 | Plant response rating, Ragweed ([6]; Postemergence, 62 g ai/ha): 45 | Plant response rating (0 to 100), Kochia [7, 16]: 5 | Plant response rating, Kochia [7, 17]: 70 | Plant response rating, Kochia ([7]; Postemergence, 62 g ai/ha): 60 | Johnsongrass plant response rating [8, 12]: 0 | Johnsongrass plant response rating [8, 13]: 20 | Johnsongrass plant response rating [8, 14]: 60

FC(F)(F)COc1cnn(-c2ccccc2Oc2ncc(Cl)cn2)c1 [Compound 138, 5-chloro-2-[2-[4-(2,2,2-trifluoroethoxy)-1H-pyrazol-1-yl]phenoxy]pyrimidine]
pest or weed control at 16 g/ha [1, 9]: 100% | pest or weed control at 62 g/ha [1, 10]: 100% | pest or weed control at 125 g/ha [1, 11]: 100% | plant injury at 250 g/ha [2]: 0% | pest or weed control at 16 g/ha [3, 12]: 100% | pest or weed control at 62 g/ha [3, 13]: 100% | pest or weed control at 125 g/ha [3, 14]: 100% | pest or weed control at 31 g/ha [3, 15]: 90% | pest or weed control at 16 g/ha [4, 16]: 5% | pest or weed control at 125 g/ha [4, 17]: 10% | pest or weed control at 62 g/ha ([4]; Postemergence, 62 g ai/ha): 5% | plant injury at 16 g/ha [5, 16]: 0% | plant injury at 125 g/ha [5, 17]: 5% | plant injury at 62 g/ha ([5]; Postemergence, 62 g ai/ha): 0% | pest or weed control at 16 g/ha [6, 16]: 40% | pest or weed control at 125 g/ha [6, 17]: 45% | pest or weed control at 62 g/ha ([6]; Postemergence, 62 g ai/ha): 40% | pest or weed control at 16 g/ha [7, 16]: 80% | pest or weed control at 125 g/ha [7, 17]: 95% | pest or weed control at 62 g/ha ([7]; Postemergence, 62 g ai/ha): 95% | pest or weed control at 16 g/ha [8, 18]: 0% | pest or weed control at 62 g/ha [8, 19]: 40% | pest or weed control at 125 g/ha [8, 20]: 65%
